# According to patent EP1285918A1, “C7 Ester substituted taxanes as antitumor agents” (Florida State University Research Foundation, Inc., priority 2001, dated 2003):
# Assays:
# [1] = test system: HCT116; test: In Vitro cytotoxicity measured by the cell colony formation assay; assay type: cell-based; settings: Homo sapiens, HCT-116; 72 h drug incubation, colonies counted after 7 days; concentration producing 50% inhibition of colony formation; read-out: IN VITRO ID 50 (nm) HCT116
# [2] = test system: MX-1 Human Breast Carcinoma Xenograft; test: In vivo evaluation of oral administration of antitumor compounds against MX-1 human breast carcinoma xenograft (Example 25); settings: for Maximum Weight Loss (Day) / Partial Response / Stable Disease / Toxic Deaths / Mean Day of Survival (n): 6 mice/group; for Maximum Weight Loss (Day): on Day 5; for Partial Response / Stable Disease / Toxic Deaths / Mean Day of Survival (n): study end Day 63; for Mean Day of Survival (n): days until tumor reached 1.5 g; for survival compared to vehicle control mice: MX-1, single oral bolus, doses of Table 22, Day 63; for Complete Response: po, 1512 h
# Description: This study investigated the efficacy of various antitumor compounds when administered orally against the MX-1 human breast carcinoma xenograft.
# (§1) The study was terminated on Day 63.
# [3] = test system: blood cell populations; test: Effect of oral treatment on blood cell populations, body weight and tumor weight in MX-1 bearing mice (Example 25, Table 23); assay type: in vivo, nu/nu mice; settings: for Weight: tumor weight at Day 18
# Protocol: as §1
# In addition to survival and tumor regression responses, the effect of treatment on blood cell populations was assessed. The major effect of these antitumor compounds on blood cell populations was a marked reduction in the neutrophil cell number. As well, monocyte depletion correlated fairly well with neutrophil reduction for each antitumor compound. […] There was a correlation between antitumor activity and reduced neutrophil count. In general, toxicity (as determined by neutrophil depletion) and weight loss correlated with efficacy. Importantly, the toxicities observed with the very efficacious antitumor compounds were manageable and reversible; neutrophil count and body weight rebounded from their low points in just a few days. Table 23 summarizes the weight reduction, neutrophil and monocyte measurements on Day 4, with tumor weight reduction calculated at Day 18: Table 23
# [4] = Day 4, 233 mg/kg single oral bolus
# [5] = Day 4, 160 mg/kg single oral bolus
smiles,measurement,setting,value
CCC(=O)O[C@H]1C[C@H]2OC[C@@]2(OC(C)=O)[C@H]2[C@H](OC(=O)c3ccccc3)[C@]3(O)C[C@H](OC(=O)[C@H](O)[C@@H](NC(=O)OC(C)(C)C)c4ccccc4)C(C)=C([C@@H](O)C(=O)[C@]12C)C3(C)C [Compound 1458],IC50,[1],< 10 nM
same,Maximum Weight Loss (Day),[2]; 233 mg/kg single oral bolus,-5.8% (5)
same,Partial Response,[2]; 233 mg/kg single oral bolus,0
same,Stable Disease,[2]; 233 mg/kg single oral bolus,0
same,Toxic Deaths,[2]; 233 mg/kg single oral bolus,0
same,Mean Day of Survival (n),[2]; 233 mg/kg single oral bolus,46.0 ± 1.6 (5) days
same,survival compared to vehicle control mice,[2],significant survival extensions
same,Complete Response,[2]; 233 mg/kg,1
same,Monocytes (K/µL),[3]; [4],0.057 K/µL
same,Neutrophils (K/µL),[3]; [4],0.232 K/µL
same,% Reduction,"[3]; reduction of monocytes, Day 4, 233 mg/kg single oral bolus",40.6%
same,% Reduction,"[3]; reduction of neutrophils, Day 4, 233 mg/kg single oral bolus",74.5%
same,% Reduction,"[3]; reduction of tumor weight at Day 18, 233 mg/kg single oral bolus",97.5%
same,Weight,[3]; 233 mg/kg single oral bolus,21.8 mg
CCC(=O)OC1CC2OCC2(OC(C)=O)C2C(OC(=O)c3ccccc3)C3(O)CC(OC(=O)C(O)C(NC(=O)c4ccccc4)c4ccco4)C(C)=C(C(O)C(=O)C12C)C3(C)C (stereo not shown) [Compound 4017],IC50,[1],< 10 nM
same,Maximum Weight Loss (Day),[2]; 160 mg/kg single oral bolus,-4.3% (5)
same,Partial Response,[2]; 160 mg/kg single oral bolus,0
same,Stable Disease,[2]; 160 mg/kg single oral bolus,0
same,Toxic Deaths,[2]; 160 mg/kg single oral bolus,1
same,Mean Day of Survival (n),[2]; 160 mg/kg single oral bolus,39.4 ± 4.6 (5) days
same,survival compared to vehicle control mice,[2],significant survival extensions
same,Complete Response,[2]; 160 mg/kg,0
same,Monocytes (K/µL),[3]; [5],0.073 K/µL
same,Neutrophils (K/µL),[3]; [5],0.228 K/µL
same,% Reduction,"[3]; reduction of monocytes, Day 4, 160 mg/kg single oral bolus",24.0%
same,% Reduction,"[3]; reduction of neutrophils, Day 4, 160 mg/kg single oral bolus",75.0%
same,% Reduction,"[3]; reduction of tumor weight at Day 18, 160 mg/kg single oral bolus",70.5%
same,Weight,[3]; 160 mg/kg single oral bolus,256.5 mg
